System: MV-4-11 cells
Assay: Gene expression microarray analysis (Affymetrix PrimeView) and GSEA
Format: cell-based, human
Parameters: RFU PODN (11730768_x_at) / Fold change /veh PODN (11730768_x_at) / RFU LINC00158 (11744669_a_at) / Fold change /veh LINC00158 (11744669_a_at) / RFU DUSP10 (11751237_a_at) / Fold change /veh DUSP10 (11751237_a_at) / RFU ID3 (11757404_x_at) / Fold change /veh ID3 (11757404_x_at) / RFU PLEKHG5 (11737974_s_at) / Fold change /veh PLEKHG5 (11737974_s_at) / RFU LRRC4B (11730491_at) / Fold change /veh LRRC4B (11730491_at) / RFU GIMAP4 (11747438_a_at) / Fold change /veh GIMAP4 (11747438_a_at) / RFU KRT8 (11758183_x_at) / Fold change /veh KRT8 (11758183_x_at) / RFU CNN1 (11734310_a_at) / Fold change /veh CNN1 (11734310_a_at) / RFU VPS37D (11726825_at) / Fold change /veh VPS37D (11726825_at) / RFU C10orf10 (11716522_x_at) / Fold change /veh C10orf10 (11716522_x_at) / RFU KIR2DL2 /// KIR2DL4 /// KIR2DL5A /// KIR2DL5B /// KIR2DS1 /// KIR2DS2 /// KIR2DS3 /// KIR2DS4 /// KIR3DL3 /// KIR3DL3 /// KIR3DS1 (11738374_at) / Fold change /veh KIR2DL2 /// KIR2DL4 /// KIR2DL5A /// KIR2DL5B /// KIR2DS1 /// KIR2DS2 /// KIR2DS3 /// KIR2DS4 /// KIR3DL3 /// KIR3DL3 /// KIR3DS1 (11738374_at) / RFU C1QL1 (11718748_at) / Fold change /veh C1QL1 (11718748_at) / RFU TMPRSS4 (11747572_a_at) / Fold change /veh TMPRSS4 (11747572_a_at) / RFU HAMP (11756126_x_at) / Fold change /veh HAMP (11756126_x_at) / RFU RNFT2 (11725882_a_at) / Fold change /veh RNFT2 (11725882_a_at) / RFU NR4A2 (11747474_a_at) / Fold change /veh NR4A2 (11747474_a_at) / RFU ABCC12 (11746883_a_at) / Fold change /veh ABCC12 (11746883_a_at) / RFU TMEM136 (11760407_x_at) / Fold change /veh TMEM136 (11760407_x_at) / RFU CLDN22 /// WWC2 (11732394_at) / Fold change /veh CLDN22 /// WWC2 (11732394_at) / RFU HLA-DPB1 (11760878_x_at) / Fold change /veh HLA-DPB1 (11760878_x_at) / RFU SPINT1 (11716480_a_at) / Fold change /veh SPINT1 (11716480_a_at) / RFU GAP43 (11754022_s_at) / Fold change /veh GAP43 (11754022_s_at) / RFU A4GNT (11735810_at) / Fold change /veh A4GNT (11735810_at) / RFU PRB3 (11715151_x_at) / Fold change /veh PRB3 (11715151_x_at) / RFU TUBB4B (11761932_at) / Fold change /veh TUBB4B (11761932_at) / RFU CAPN14 (11732068_a_at) / Fold change /veh CAPN14 (11732068_a_at) / RFU TMCC2 (11721928_a_at) / Fold change /veh TMCC2 (11721928_a_at) / RFU IRGQ (11745062_a_at) / Fold change /veh IRGQ (11745062_a_at) / RFU FAM174B (11720279_a_at) / Fold change /veh FAM174B (11720279_a_at) / RFU TMPRSS4 (11748680_a_at) / Fold change /veh TMPRSS4 (11748680_a_at) / RFU FAM212B (11763350_a_at) / Fold change /veh FAM212B (11763350_a_at) / RFU PLEKHG5 (11743358_a_at) / Fold change /veh PLEKHG5 (11743358_a_at) / RFU ZSCAN30 (11745921_a_at) / Fold change /veh ZSCAN30 (11745921_a_at) / RFU CMKLR1 (11741424_a_at) / Fold change /veh CMKLR1 (11741424_a_at) / RFU LOC101060620 /// MAPK8IP1 (11723275_at) / Fold change /veh LOC101060620 /// MAPK8IP1 (11723275_at) / RFU SPTSSB (11747773_x_at) / Fold change /veh SPTSSB (11747773_x_at) / RFU PRSS12 (11739890_at) / Fold change /veh PRSS12 (11739890_at) / RFU BIN1 (11741810_x_at) / Fold change /veh BIN1 (11741810_x_at) / RFU WNT11 (11732464_a_at) / Fold change /veh WNT11 (11732464_a_at) / RFU C10orf10 (11716521_a_at) / Fold change /veh C10orf10 (11716521_a_at) / RFU C5orf56 (11738089_at) / Fold change /veh C5orf56 (11738089_at) / RFU CYB561 (11721691_x_at) / Fold change /veh CYB561 (11721691_x_at) / RFU ANKRD19P (11752326_a_at) / Fold change /veh ANKRD19P (11752326_a_at) / RFU OR2T12 /// OR2T33 /// OR2T8 (11738714_s_at) / Fold change /veh OR2T12 /// OR2T33 /// OR2T8 (11738714_s_at) / RFU VCAN (11748164_a_at) / Fold change /veh VCAN (11748164_a_at) / RFU JSRP1 (11732532_at) / Fold change /veh JSRP1 (11732532_at) / RFU KRTAP10-11 (11738290_x_at) / Fold change /veh KRTAP10-11 (11738290_x_at) / RFU MYO3A (11730013_a_at) / Fold change /veh MYO3A (11730013_a_at) / RFU EBF3 (11725865_a_at) / Fold change /veh EBF3 (11725865_a_at) / RFU CAMK2N1 (11719241_x_at) / Fold change /veh CAMK2N1 (11719241_x_at) / RFU C5orf56 (11738088_a_at) / Fold change /veh C5orf56 (11738088_a_at) / RFU OLFML3 (11715873_a_at) / Fold change /veh OLFML3 (11715873_a_at) / RFU LOC100653217 /// NTM (11731650_a_at) / Fold change /veh LOC100653217 /// NTM (11731650_a_at) / RFU MAPK11 (11762145_a_at) / Fold change /veh MAPK11 (11762145_a_at) / RFU FIZ1 (11724087_x_at) / Fold change /veh FIZ1 (11724087_x_at) / RFU OASL (11726364_x_at) / Fold change /veh OASL (11726364_x_at) / RFU SOX15 (11748057_x_at) / Fold change /veh SOX15 (11748057_x_at) / RFU CD79A (11719716_a_at) / Fold change /veh CD79A (11719716_a_at) / RFU HIST1H1D (11736915_at) / Fold change /veh HIST1H1D (11736915_at) / RFU CASKIN2 (11723855_a_at) / Fold change /veh CASKIN2 (11723855_a_at) / RFU LOC730098 (11760151_x_at) / Fold change /veh LOC730098 (11760151_x_at) / RFU OR4N2 (11742367_at) / Fold change /veh OR4N2 (11742367_at) / RFU PRRT2 (11749266_a_at) / Fold change /veh PRRT2 (11749266_a_at) / RFU SNX32 (11753110_a_at) / Fold change /veh SNX32 (11753110_a_at) / RFU CDHR5 (11726645_a_at) / Fold change /veh CDHR5 (11726645_a_at) / RFU RCAN1 (11760418_a_at) / Fold change /veh RCAN1 (11760418_a_at) / RFU FAM167A (11723789_a_at) / Fold change /veh FAM167A (11723789_a_at) / RFU FAM26E (11764081_at) / Fold change /veh FAM26E (11764081_at) / RFU ISYNA1 (11749810_s_at) / Fold change /veh ISYNA1 (11749810_s_at) / RFU ACY1 (11761880_at) / Fold change /veh ACY1 (11761880_at) / RFU 11764098_at / Fold change /veh 11764098_at / RFU SAMD14 (11745864_x_at) / Fold change /veh SAMD14 (11745864_x_at) / RFU NPB (11741838_a_at) / Fold change /veh NPB (11741838_a_at) / RFU TMPRSS6 (11731388_a_at) / Fold change /veh TMPRSS6 (11731388_a_at) / RFU KRTAP10-2 (11738614_at) / Fold change /veh KRTAP10-2 (11738614_at) / RFU ARHGAP8 /// PRR5-ARHGAP8 (11727945_x_at) / Fold change /veh ARHGAP8 /// PRR5-ARHGAP8 (11727945_x_at) / RFU KRTAP5-7 /// NADSYN1 (11734609_at) / Fold change /veh KRTAP5-7 /// NADSYN1 (11734609_at) / RFU RASL12 (11751679_a_at) / Fold change /veh RASL12 (11751679_a_at) / RFU CDKN2B (11736163_a_at) / Fold change /veh CDKN2B (11736163_a_at) / RFU PRF1 (11729649_at) / Fold change /veh PRF1 (11729649_at) / RFU, ZNF638 /// ZNF638-IT1 / Fold change vs veh, ZNF638 /// ZNF638-IT1 / RFU, PANK3 / Fold change vs veh, PANK3 / RFU, SH3YL1 / Fold change vs veh, SH3YL1 / RFU, ZEB2 / Fold change vs veh, ZEB2 / RFU, NRIP1 / Fold change vs veh, NRIP1 / RFU, PTTG1IP / Fold change vs veh, PTTG1IP / RFU, CAPN2 / Fold change vs veh, CAPN2 / RFU, MED14 / Fold change vs veh, MED14 / RFU, SNORA58 / Fold change vs veh, SNORA58 / RFU, C1orf63 / Fold change vs veh, C1orf63 / RFU, LRRFIP1 / Fold change vs veh, LRRFIP1 / RFU, NDUFAF7 / Fold change vs veh, NDUFAF7 / RFU, SLC12A2 / Fold change vs veh, SLC12A2 / RFU, IBTK / Fold change vs veh, IBTK / RFU, ESF1 / Fold change vs veh, ESF1 / Fold change vs veh, TMEM50B / RFU, TAOK1 / Fold change vs veh, TAOK1 / RFU, ACBD3 / Fold change vs veh, ACBD3 / RFU, TMA16 / Fold change vs veh, TMA16 / RFU, RWDD3 / Fold change vs veh, RWDD3 / RFU, BCAT1 / Fold change vs veh, BCAT1 / RFU, EDEM3 / Fold change vs veh, EDEM3 / RFU, TMEM33 / Fold change vs veh, TMEM33 / RFU, WDR75 / Fold change vs veh, WDR75 / RFU, AHCTF1 / Fold change vs veh, AHCTF1 / RFU, TFRC / Fold change vs veh, TFRC / RFU, ZDHHC17 / Fold change vs veh, ZDHHC17 / RFU, NOM1 / Fold change vs veh, NOM1 / RFU, ARL8B / Fold change vs veh, ARL8B / RFU, ZBTB11 / Fold change vs veh, ZBTB11 / RFU, TAMM41 / Fold change vs veh, TAMM41 / RFU, KIAA1704 /// LOC100996395 / Fold change vs veh, KIAA1704 /// LOC100996395 / RFU, ING1 / Fold change vs veh, ING1 / RFU, TRMT61B / Fold change vs veh, TRMT61B / RFU, FUBP3 / Fold change vs veh, FUBP3 / RFU, TP53 / Fold change vs veh, TP53 / RFU, TNKS2 / Fold change vs veh, TNKS2 / RFU, ZFP14 / Fold change vs veh, ZFP14 / RFU, ACTR2 / Fold change vs veh, ACTR2 / RFU, PPP3R1 / Fold change vs veh, PPP3R1 / RFU, PIK3R1 / Fold change vs veh, PIK3R1 / RFU, HNRNPA1 / Fold change vs veh, HNRNPA1 / RFU, RNF170 / Fold change vs veh, RNF170 / RFU, ZNF28 / Fold change vs veh, ZNF28 / RFU, RNGTT / Fold change vs veh, RNGTT / RFU, OGT / Fold change vs veh, OGT / RFU, BRD1 / Fold change vs veh, BRD1 / RFU, MARS / Fold change vs veh, MARS / RFU, ZNF655 / Fold change vs veh, ZNF655 / RFU, FAHD1 / Fold change vs veh, FAHD1 / RFU, BDP1 / Fold change vs veh, BDP1 / RFU, LRRCC1 / Fold change vs veh, LRRCC1 / RFU, ARID1A / Fold change vs veh, ARID1A / RFU, ZNF146 / Fold change vs veh, ZNF146 / RFU, ZNF330 / Fold change vs veh, ZNF330 / RFU, GPN3 / Fold change vs veh, GPN3 / RFU, C9orf123 / Fold change vs veh, C9orf123 / RFU, N4BP2L2 / Fold change vs veh, N4BP2L2 / RFU, ARFIP1 / Fold change vs veh, ARFIP1 / RFU, FAM179B / Fold change vs veh, FAM179B / RFU, BCL10 / Fold change vs veh, BCL10 / RFU, UHRF1BP1L / Fold change vs veh, UHRF1BP1L / RFU, BET1 / Fold change vs veh, BET1 / RFU, CNOT2 / Fold change vs veh, CNOT2 / RFU, ZNF268 / Fold change vs veh, ZNF268 / Fold change vs veh, ZNF507 / RFU, DGCR2 / Fold change vs veh, DGCR2 / RFU, WDSUB1 / Fold change vs veh, WDSUB1 / Fold change vs veh, HSP90B1 /// MIR3652 / RFU, ADSS / Fold change vs veh, ADSS / RFU, GK / Fold change vs veh, GK / RFU, ZNF148 / Fold change vs veh, ZNF148 / RFU, TAF9 / Fold change vs veh, TAF9 / RFU, SLC1A5 / Fold change vs veh, SLC1A5 / RFU, SLMO2 / Fold change vs veh, SLMO2 / RFU, ABCC4 / Fold change vs veh, ABCC4 / RFU, LOC101060439 /// RAP1B / Fold change vs veh, LOC101060439 /// RAP1B / RFU, RFX7 / Fold change vs veh, RFX7 / RFU, GTPBP10 / Fold change vs veh, GTPBP10 / RFU, CNEP1R1 / Fold change vs veh, CNEP1R1 / RFU, BIVM-ERCC5 /// ERCC5 / Fold change vs veh, BIVM-ERCC5 /// ERCC5 / RFU, ILF3 / Fold change vs veh, ILF3 / RFU 11762660_at / Fold change /veh 11762660_at / RFU VCAN (11757783_s_at) / Fold change /veh VCAN (11757783_s_at) / RFU DDX43 (11728927_at) / Fold change /veh DDX43 (11728927_at) / RFU KRT8 (11758188_x_at) / Fold change /veh KRT8 (11758188_x_at) / RFU NKD1 (11759106_at) / Fold change /veh NKD1 (11759106_at) / RFU SRD5A1 (11742802_a_at) / Fold change /veh SRD5A1 (11742802_a_at) / RFU TPSAB1 /// TPSB2 (11721975_s_at) / Fold change /veh TPSAB1 /// TPSB2 (11721975_s_at) / RFU GSTM3 (11746129_a_at) / Fold change /veh GSTM3 (11746129_a_at) / RFU IL23R (11737362_x_at) / Fold change /veh IL23R (11737362_x_at) / RFU TMEM51 (11727254_a_at) / Fold change /veh TMEM51 (11727254_a_at) / RFU PIWIL2 (11732686_x_at) / Fold change /veh PIWIL2 (11732686_x_at) / RFU ORM1 (11744905_x_at) / Fold change /veh ORM1 (11744905_x_at) / RFU CCDC152 (11743942_at) / Fold change /veh CCDC152 (11743942_at) / RFU ECM1 (11717891_a_at) / Fold change /veh ECM1 (11717891_a_at) / RFU IL23R (11748794_a_at) / Fold change /veh IL23R (11748794_a_at) / RFU TNFAIP8L3 (11732012_x_at) / Fold change /veh TNFAIP8L3 (11732012_x_at) / RFU MBOAT4 (11741988_at) / Fold change /veh MBOAT4 (11741988_at) / RFU 11764193_at / Fold change /veh 11764193_at / RFU TMEM53 (11763286_at) / Fold change /veh TMEM53 (11763286_at) / RFU MAGEB2 (11727129_at) / Fold change /veh MAGEB2 (11727129_at) / RFU TMEM200A (11744735_a_at) / Fold change /veh TMEM200A (11744735_a_at) / RFU CCDC152 (11751479_a_at) / Fold change /veh CCDC152 (11751479_a_at) / RFU FAM211A (11726209_a_at) / Fold change /veh FAM211A (11726209_a_at) / RFU RGS16 (11746705_a_at) / Fold change /veh RGS16 (11746705_a_at) / RFU VCAN (11755009_s_at) / Fold change /veh VCAN (11755009_s_at) / RFU RHOB (11743442_s_at) / Fold change /veh RHOB (11743442_s_at) / RFU RGS16 (11720943_a_at) / Fold change /veh RGS16 (11720943_a_at) / RFU RGS16 (11720944_at) / Fold change /veh RGS16 (11720944_at) / RFU, VPS4B / Fold change vs veh, VPS4B / RFU, CREB1 / Fold change vs veh, CREB1 / RFU, DNAJC13 / Fold change vs veh, DNAJC13 / RFU, GNAQ / Fold change vs veh, GNAQ / RFU, CDK5R1 / Fold change vs veh, CDK5R1 / RFU, ZRANB3 / Fold change vs veh, ZRANB3 / RFU, CUL4A / Fold change vs veh, CUL4A / RFU, CCNY / Fold change vs veh, CCNY / RFU, UFL1 / Fold change vs veh, UFL1 / RFU, COG3 / Fold change vs veh, COG3 / RFU, DIAPH2 / Fold change vs veh, DIAPH2 / RFU, SKA2 / Fold change vs veh, SKA2 / RFU, AFF3 / Fold change vs veh, AFF3 / RFU, LMF1 / Fold change vs veh, LMF1 / RFU, IPO11 / Fold change vs veh, IPO11 / RFU, DFFB / Fold change vs veh, DFFB / RFU, FOXP1 / Fold change vs veh, FOXP1 / RFU, CARD8 / Fold change vs veh, CARD8 / RFU, STRN3 / Fold change vs veh, STRN3 / RFU, ADK / Fold change vs veh, ADK / RFU, RASSF2 / Fold change vs veh, RASSF2 / RFU, WIPF1 / Fold change vs veh, WIPF1 / RFU, LARP1B / Fold change vs veh, LARP1B / RFU, RASA1 / Fold change vs veh, RASA1 / RFU, RB1 / Fold change vs veh, RB1 / RFU, PPFIA1 / Fold change vs veh, PPFIA1 / RFU, MAT2A / Fold change vs veh, MAT2A / RFU, CCT5 / Fold change vs veh, CCT5 / RFU, WDR92 / Fold change vs veh, WDR92 / RFU, CUX1 / Fold change vs veh, CUX1 / RFU, TTC7A / Fold change vs veh, TTC7A / RFU, TMEM135 / Fold change vs veh, TMEM135 / RFU, DEPTOR / Fold change vs veh, DEPTOR / RFU, CPM / Fold change vs veh, CPM / RFU, DNAJB6 / Fold change vs veh, DNAJB6 / RFU, CACNA2D3 / Fold change vs veh, CACNA2D3 / RFU, DTX4 / Fold change vs veh, DTX4 / RFU, TFCP2 / Fold change vs veh, TFCP2 / RFU, GMCL1 /// GMCL1P1 / Fold change vs veh, GMCL1 /// GMCL1P1 / RFU, AEBP2 / Fold change vs veh, AEBP2 / RFU, SNHG1 /// SNORD22 /// SNORD25 /// SNORD26 /// SNORD27 /// SNORD28 /// SNORD29 /// SNORD31 / Fold change vs veh, SNHG1 /// SNORD22 /// SNORD25 /// SNORD26 /// SNORD27 /// SNORD28 /// SNORD29 /// SNORD31 / Fold change (Aza/veh), C12orf56 (ProbeSet 11735607_a_at) / Fold change (ACY-1035/veh), C12orf56 (ProbeSet 11735607_a_at) / Fold change (Aza/veh), FGFR1OP (ProbeSet 11751329_s_at) / Fold change (ACY-1035/veh), FGFR1OP (ProbeSet 11751329_s_at) / Fold change (Aza/veh), VPS36 (ProbeSet 11739960_a_at) / Fold change (ACY-1035/veh), VPS36 (ProbeSet 11739960_a_at) / RFU SYPL1 (11715823_x_at) / Fold change /veh SYPL1 (11715823_x_at) / RFU IGFBP7 (11715501_s_at) / Fold change /veh IGFBP7 (11715501_s_at) / RFU REEP3 (11722064_at) / Fold change /veh REEP3 (11722064_at) / RFU IGLL1 (11728026_x_at) / Fold change /veh IGLL1 (11728026_x_at): dose or concentration left out as unconfirmed
Details: MV-4-11 cells, 48 hours

Structure (SMILES): Nc1ncn([C@@H]2O[C@H](CO)[C@@H](O)[C@H]2O)c(=O)n1 [azacitidine]
- RFU GAP43 (11754022_s_at): 65.19 RFU

Source: article PMC5218480 (PLoS ONE, 2017)
